For test [1], the target named is SARS-CoV-2 3CLpro (Severe acute respiratory syndrome coronavirus 2, UniProt P0DTD1). Kind of test: FRET based protease assay, SARS-CoV-2 3CL. It counts as biochemical, SARS-CoV-2 (strain BetaCoV/Wuhan/WIV04/2019).
In test [2] the target is MERS-CoV 3CLpro (Middle East respiratory syndrome-related coronavirus, UniProt K9N638). The test is described as follows: biochemical. Conditions: MERS IC50, 75 nM MERS-CoV 3CLpro, 6 μM peptide 1 substrate, 25° C., 1.5 hrs, pH 7.5.

Bounds are passed on as bounds.

Chain of MERS-CoV 3CLpro (K9N638 3248-3553 limits assumed): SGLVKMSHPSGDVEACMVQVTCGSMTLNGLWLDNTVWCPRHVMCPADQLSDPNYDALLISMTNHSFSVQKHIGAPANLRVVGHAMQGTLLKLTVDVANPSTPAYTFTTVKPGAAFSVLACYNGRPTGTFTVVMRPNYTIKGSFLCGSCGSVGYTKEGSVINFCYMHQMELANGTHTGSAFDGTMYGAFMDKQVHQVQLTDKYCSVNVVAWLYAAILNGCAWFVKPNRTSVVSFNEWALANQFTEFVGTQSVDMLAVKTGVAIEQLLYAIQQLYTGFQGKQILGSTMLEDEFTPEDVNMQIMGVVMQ

As to `CC(C)(C)OC(=O)N[C@H]1CCCC[C@H]2CNC(=O)[C@H]2C[C@@H](C#N)NC(=O)[C@@H]2[C@H]3CC[C@H](C3)N2C1=O` [Example 127], the IC50 in test [1] and in test [2] was 1000 to 20000 nM each time.
Turning to `CC(C)(C)OC(=O)N[C@@H]1CCCC[C@H]2CNC(=O)[C@H]2C[C@@H](C#N)NC(=O)[C@@H]2[C@@H]3[C@H](CN2C1=O)C3(C)C` [Example 128], the IC50 in test [1] and in test [2] was > 20000 nM in each case.
`CC1(C)[C@@H]2[C@H]3C(=O)N[C@H](C#N)C[C@@H]4C(=O)NCC[C@@H]4CCCC[C@H](NC(=O)c4ccc(F)cc4F)C(=O)N3C[C@@H]21` [Example 129]: the IC50 in test [1] and in test [2] was < 100 nM each time.
With `CC1(C)C[C@H]2C(=O)N[C@H](C#N)C[C@@H]3C(=O)NC[C@@H]3CCCC[C@H](NC(=O)OC(C)(C)C)C(=O)N2C1` [Example 130], the half-inhibitory concentration (IC50) in test [1] and in test [2] was 100 to 1000 nM in each case.
As for `CC(C)(C)OC(=O)N[C@H]1CCCC[C@H]2CNC(=O)[C@H]2C[C@@H](C#N)NC(=O)[C@@H]2CC(F)(F)CN2C1=O` [Example 131], the IC50 in test [1] and in test [2] was 100 to 1000 nM in each case.
Turning to `CC(C)(C)OC(=O)N[C@H]1CCCC[C@H]2CNC(=O)[C@H]2C[C@@H](C#N)NC(=O)[C@@H]2CC3(CCN2C1=O)CC3` [Example 132], the IC50 is < 100 nM in test [1] and 100 to 1000 nM in test [2].
`CC1(C)[C@@H]2[C@H]3C(=O)N[C@H](C#N)C[C@@H]4C(=O)NC[C@@H]4CCCC[C@H](NC(=O)c4cc(Cl)ccc4Cl)C(=O)N3C[C@@H]21` [Example 133]: the half-maximal inhibitory concentration (IC50) in test [1] and in test [2] was < 100 nM throughout.
In the case of `CC1(C)[C@@H]2[C@H]3C(=O)N[C@H](C#N)C[C@@H]4C(=O)NC[C@@H]4CCCC[C@H](NC(=O)c4cccc(Cl)c4Cl)C(=O)N3C[C@@H]21` [Example 134], the IC50 in test [1] and in test [2] was < 100 nM each time.
With `CC1(C)[C@@H]2[C@H]3C(=O)N[C@H](C#N)C[C@@H]4C(=O)NCC[C@@H]4CCCC[C@H](NC(=O)C45CC(C(F)(F)F)(C4)C5)C(=O)N3C[C@@H]21` [Example 135], the IC50 in test [1] is 100 to 1000 nM; in test [2], < 100 nM.
For the compound `CC(C)(C)C[C@@H]1NC(=O)[C@@H](NC(=O)c2ccc(Cl)c(Cl)c2)CCCC[C@H]2CNC(=O)[C@H]2C[C@@H](C#N)NC1=O` [Example 136], the 50% inhibitory concentration (IC50) in test [1] and in test [2] was < 100 nM in each case.
On to `CC(C)(C)OC(=O)N[C@H]1CCCC[C@H]2CNC(=O)[C@H]2C[C@@H](C#N)NC(=O)[C@H](CC2CCCC2)NC1=O` [Example 137], for which the values for the 50% inhibitory concentration (IC50) in test [1] and in test [2] were < 100 nM and 1000 to 20000 nM, respectively.
Consider `CC(C)(F)C[C@@H]1NC(=O)[C@@H](NC(=O)OC(C)(C)C)CCCC[C@H]2CNC(=O)[C@H]2C[C@@H](C#N)NC1=O` [Example 138], for which the IC50 in test [1] and in test [2] was 100 to 1000 nM each time.
`CC1(C)[C@@H]2[C@H]3C(=O)N[C@H](C#N)C[C@@H]4C(=O)NC[C@@H]4CCCC[C@H](NC(=O)c4ccc(F)cc4C(F)(F)F)C(=O)N3C[C@@H]21` [Example 139]: the IC50 in test [1] and in test [2] was < 100 nM each time.
For `CN1C[C@@H]2CCCC[C@H](NC(=O)OC(C)(C)C)C(=O)N3C[C@H]4[C@@H]([C@H]3C(=O)N[C@H](C#N)C[C@@H]2C1=O)C4(C)C` [Example 140], the concentration for half-maximal inhibition (IC50) in test [1] and in test [2] was 100 to 1000 nM in each case.
`CC1(C)[C@@H]2[C@H]3C(=O)N[C@H](C#N)C[C@@H]4C(=O)NC[C@@H]4CCCC[C@H](NC(=O)C(C)(C)C(F)(F)F)C(=O)N3C[C@@H]21` [Example 141]: the half-inhibitory concentration (IC50) in test [1] and in test [2] was < 100 nM in each case.
Turning to `CC(C)(C)C[C@@H]1NC(=O)[C@@H](NC(=O)c2ccc(F)c(C(F)(F)F)c2)CCCC[C@H]2CNC(=O)[C@H]2C[C@@H](C#N)NC1=O` [Example 142], the concentration for half-maximal inhibition (IC50) in test [1] and in test [2] was 100 to 1000 nM in each case.
`CC(C)(C)OC(=O)N[C@H]1CCCC[C@H]2CNC(=O)[C@H]2C[C@@H](C#N)NC(=O)[C@@H]2CCCCCN2C1=O` [Example 143]: the concentration for half-maximal inhibition (IC50) in test [1] and in test [2] was 100 to 1000 nM each time.
With `CCO[C@@H]1C[C@H]2C(=O)N[C@H](C#N)C[C@@H]3C(=O)NC[C@@H]3CCCC[C@H](NC(=O)OC(C)(C)C)C(=O)N2C1` [Example 144], the 50% inhibitory concentration (IC50) in test [1] was < 100 nM; in test [2], 1000 to 20000 nM.
As to `CCC(C)(C)[C@@H]1NC(=O)[C@@H](NC(=O)OC(C)(C)C)CCCC[C@H]2CNC(=O)[C@H]2C[C@@H](C#N)NC1=O` [Example 145], the IC50 in test [1] and in test [2] was 1000 to 20000 nM each time.
Turning to `CC(C)(C)OC(=O)N[C@H]1CCCC[C@H]2CNC(=O)[C@H]2C[C@@H](C#N)NC(=O)[C@H]2N(CC(F)(F)C2(C)C)C1=O` [Example 146], the IC50 in test [1] and in test [2] was 100 to 1000 nM in each case.
For `CO[C@@H]1C[C@H]2C(=O)N[C@H](C#N)C[C@@H]3C(=O)NC[C@@H]3CCCC[C@H](NC(=O)OC(C)(C)C)C(=O)N2C1` [Example 147], the IC50 in test [1] is < 100 nM; in test [2], 100 to 1000 nM.
Turning to `CC1(C)[C@@H]2[C@H]3C(=O)N[C@H](C#N)C[C@@H]4C(=O)NC[C@@H]4CCCC[C@H](NC(=O)C45CCC(C4)C5)C(=O)N3C[C@@H]21` [Example 148], the half-maximal inhibitory concentration (IC50) in test [1] is < 100 nM; in test [2] it was 100 to 1000 nM.
On to `CC(C)(C)C[C@@H]1NC(=O)[C@@H](NC(=O)C2(C(F)(F)F)CC2)CCCC[C@H]2CNC(=O)[C@H]2C[C@@H](C#N)NC1=O` [Example 149], for which the 50% inhibitory concentration (IC50) was < 100 nM in test [1] and 100 to 1000 nM in test [2].
Turning to `N#C[C@@H]1C[C@@H]2C(=O)NC[C@@H]2CCCC[C@H](NC(=O)C2(C(F)(F)F)CC2)C(=O)N2C[C@@H]3CCC[C@@H]3[C@H]2C(=O)N1` [Example 150], the IC50 in test [1] and in test [2] was < 100 nM in each case.
For `N#C[C@@H]1C[C@@H]2C(=O)NC[C@@H]2CCCC[C@H](NC(=O)C2(C(F)(F)F)CC2)C(=O)N2CCC3(CC3)C[C@H]2C(=O)N1` [Example 151], the results for the IC50 in test [1] and in test [2] were < 100 nM and 100 to 1000 nM, respectively.
`CC1(C)[C@@H]2[C@H]3C(=O)N[C@H](C#N)C[C@@H]4C(=O)NC[C@@H]4CCCC[C@H](NC(=O)OC4(C(F)(F)F)CCC4)C(=O)N3C[C@@H]21` [Example 152]: the 50% inhibitory concentration (IC50) in test [1] and in test [2] was < 100 nM each time.
In the case of `CC1(C)[C@@H]2[C@H]3C(=O)N[C@H](C#N)C[C@@H]4C(=O)NC[C@@H]4CCCC[C@H](NC(=O)c4cc(C(F)(F)F)on4)C(=O)N3C[C@@H]21` [Example 153], the IC50 in test [1] is < 100 nM; in test [2], 100 to 1000 nM.
On to `CC1(C)[C@@H]2[C@H]3C(=O)N[C@H](C#N)C[C@@H]4C(=O)NC[C@@H]4CCCC[C@H](NS(=O)(=O)c4ccccc4)C(=O)N3C[C@@H]21` [Example 154], for which the half-maximal inhibitory concentration (IC50) in test [1] and in test [2] was < 100 nM each time.
As for `N#C[C@@H]1C[C@@H]2C(=O)NC[C@@H]2CCCC[C@H](NS(=O)(=O)c2ccc(F)cc2F)C(=O)N2C[C@@H]3CCC[C@@H]3[C@H]2C(=O)N1` [Example 155], the half-inhibitory concentration (IC50) was < 100 nM in test [1] and 100 to 1000 nM in test [2].
Taken in the same sequence, the figures for `CC1(C)[C@@H]2[C@H]3C(=O)N[C@H](C#N)C[C@@H]4C(=O)NC[C@@H]4CCCC[C@H](NS(=O)(=O)C4CC4)C(=O)N3C[C@@H]21` [Example 156] were < 100 nM and < 100 nM.
On to `CC1(C)[C@@H]2[C@H]3C(=O)N[C@H](C#N)C[C@@H]4C(=O)NC[C@@H]4CCCC[C@H](NS(=O)(=O)c4ccc(F)cc4F)C(=O)N3C[C@@H]21` [Example 157], for which the IC50 in test [1] and in test [2] was < 100 nM throughout.
Turning to `CC1(C)[C@@H]2[C@H]3C(=O)N[C@H](C#N)C[C@@H]4C(=O)NC[C@@H]4CCCC[C@H](NS(=O)(=O)C(F)(F)F)C(=O)N3C[C@@H]21` [Example 158], the IC50 in test [1] and in test [2] was < 100 nM in each case.
On to `CC1(C)[C@@H]2[C@H]3C(=O)N[C@H](C#N)C[C@@H]4C(=O)NC[C@@H]4CCCC[C@H](NS(=O)(=O)C4(C)CC4)C(=O)N3C[C@@H]21` [Example 159], for which the concentration for half-maximal inhibition (IC50) in test [1] and in test [2] was < 100 nM each time.
With `CC1(C)[C@@H]2[C@H]3C(=O)N[C@H](C#N)C[C@@H]4C(=O)NC[C@@H]4CCCC[C@H](NS(=O)(=O)C4CCC4)C(=O)N3C[C@@H]21` [Example 160], the concentration for half-maximal inhibition (IC50) in test [1] and in test [2] was < 100 nM each time.
Turning to `CC1(C)[C@@H]2[C@H]3C(=O)N[C@H](C#N)C[C@@H]4C(=O)NC[C@@H]4CCCC[C@H](N)C(=O)N3C[C@@H]21` [Example 161], the IC50 in test [1] fell in the range of 100 to 1000 nM; in test [2], 1000 to 20000 nM.
For the compound `CC1(C)[C@@H]2[C@H]3C(=O)N[C@H](C#N)C[C@@H]4C(=O)NC[C@@H]4CCCC[C@H](Nc4nccc(C(F)(F)F)n4)C(=O)N3C[C@@H]21` [Example 162], the IC50 was < 100 nM in test [1] and 100 to 1000 nM in test [2].
With `CC1(C)[C@@H]2[C@H]3C(=O)N[C@H](C#N)C[C@@H]4C(=O)NC[C@@H]4CCCC[C@H](Nc4cc(C(F)(F)F)ncn4)C(=O)N3C[C@@H]21` [Example 163], the 50% inhibitory concentration (IC50) is < 100 nM in test [1] and 100 to 1000 nM in test [2].
For `CC1(C)[C@@H]2[C@H]3C(=O)N[C@H](C#N)C[C@@H]4C(=O)NC[C@@H]4CCCC[C@H](Nc4ccnc(C(F)(F)F)n4)C(=O)N3C[C@@H]21` [Example 164], in that order: < 100 nM and 100 to 1000 nM.
Taken in the same sequence, the figures for `N#C[C@@H]1C[C@@H]2C(=O)NC[C@@H]2CCCC[C@H](Nc2nccc(C(F)(F)F)n2)C(=O)N2C[C@@H]3CCC[C@@H]3[C@H]2C(=O)N1` [Example 165] were < 100 nM and 100 to 1000 nM.
For `CC(C)(C)NC(=O)[C@@H]1CCCC[C@H]2CNC(=O)[C@H]2C[C@@H](C#N)NC(=O)[C@@H]2[C@@H]3[C@H](CN2C1=O)C3(C)C` [Example 166], in that order: 1000 to 20000 nM and > 20000 nM.
Take `CC(C)(C)NC(=O)[C@H]1CCCC[C@H]2CNC(=O)[C@H]2C[C@@H](C#N)NC(=O)[C@@H]2[C@@H]3[C@H](CN2C1=O)C3(C)C` [Example 167]: the IC50 fell in the range of 100 to 1000 nM in test [1] and 1000 to 20000 nM in test [2].
